In the PolyMetriX glass transition set:

Compound	glass transition temperature [°C]
*/C=C(\C#N)C(=O)NC1CCCCC1NC(=O)/C(C#N)=C/c1ccc(/C=C/c2ccc(N(CC)Cc3cccc(CN(CC)c4ccc(/C=C/c5ccc(*)s5)cc4)c3)cc2)s1 (repeat unit)	157.00
*/C=C(\C#N)c1cccc(/C(C#N)=C/c2ccc(/C=C/c3ccc(N(CC)Cc4ccccc4CN(CC)c4ccc(/C=C/c5ccc(*)s5)cc4)cc3)s2)c1 (repeat unit)	178.00
*/C=C/c1ccc(N(CC)Cc2ccccc2CN(CC)c2ccc(/C=C/c3ccc(/C=C(\C#N)S(=O)(=O)/C(C#N)=C/c4ccc(*)s4)s3)cc2)cc1 (repeat unit)	178.00
*=CNc1ccc(CCc2ccc(N=*)cc2)cc1 (repeat unit)	125.00
*CC(=O)NC(C)C(=O)O* (repeat unit)	54.60
*CC(C)(C)COC(=O)Nc1ccc(C)c(NC(=O)O*)c1 (repeat unit)	-32.00
*CC1CCC(COP(=O)(/N=N/c2ccc(-c3ccc(/N=N/P(=O)(O*)OC)cc3)cc2)OC)CC1 (repeat unit)	58.00
*CC1CCC(COP(=O)(/N=N/c2ccc(C(=O)c3ccc(/N=N/P(=O)(O*)OC)cc3)cc2)OC)CC1 (repeat unit)	52.00
*CCCCCCOP(=O)(/N=N/c1ccc(C(=O)c2ccc(/N=N/P(=O)(O*)OC)cc2)cc1)OC (repeat unit)	31.00
*CCCCCOC(=O)c1ccccc1C(=O)[O][Pb][O]C(=O)c1ccccc1C(=O)OCCCCCOC(=O)Nc1ccc(C)c(NC(=O)O*)c1 (repeat unit)	-11.30
*CCOC(=O)Nc1cc(NC(=O)O*)ccc1C (repeat unit)	52.00
*CCOCCOP(=O)(/N=N/c1ccc(-c2ccc(/N=N/P(=O)(O*)OC)cc2)cc1)OC (repeat unit)	22.00
*CCOCCOP(=O)(/N=N/c1ccc(C(=O)c2ccc(/N=N/P(=O)(O*)OC)cc2)cc1)OC (repeat unit)	33.00
*CCOCCOP(=O)(/N=N/c1ccc(Oc2ccc(/N=N/P(=O)(O*)OC)cc2)cc1)OC (repeat unit)	32.00
*CCOP(=O)(/N=N/c1ccc(CCOC(=O)c2cc(C(=O)OCCc3ccc(/N=N/P(=O)(O*)OC)cc3)cc(C(C)(C)C)c2)cc1)OC (repeat unit)	84.00
*[CH2][Ge]([CH3])([CH3])[CH2]c1cocc1* (repeat unit)	-28.00

Compound	glass transition temperature [°C]
*N(C)[Si](*)(C)C=C (repeat unit)	-20.00
*N(C)[Si](C)(C)N(C)[Si](*)(C)CC (repeat unit)	-20.00
*N=P(*)(C)C (repeat unit)	-42.00
*N=P(*)(C)CCCCCC (repeat unit)	-69.00
*N=P(*)(CCC)CCC (repeat unit)	10.00
*NC1CC(C)(C)CC(C)(CNC(=O)CCCCC(*)=O)C1 (repeat unit)	150.80
*Nc1cc(NC(=O)C(*)=O)ccc1C (repeat unit)	-54.6
*OC(=O)C(C)NC(=O)CCCCCC(=O)NC(C)C(=O)OC1COC2C(*)COC12 (repeat unit)	45.00
*OC(=O)C(C)NC(=O)CCCCCCC(=O)NC(C)C(=O)OC1COC2C(*)COC12 (repeat unit)	57.00
*OC(=O)C(C)NC(=O)CCCCCCCC(=O)NC(C)C(=O)OC1COC2C(*)COC12 (repeat unit)	46.00
*OC(=O)C(C)NC(=O)CCCCCCCCCCC(=O)NC(C)C(=O)OC1COC2C(*)COC12 (repeat unit)	28.00
*OC(=O)C(CC(C)C)NC(=O)CCCCC(=O)NC(CC(C)C)C(=O)OC1COC2C(*)COC12 (repeat unit)	91.00
*Oc1c(F)c(F)c(-c2c(F)c(F)c(Oc3ccc(Cc4ccc(*)c(C=O)c4)cc3C=O)c(F)c2F)c(F)c1F (repeat unit)	198.00
*Oc1ccc(CC(C#N)(Cc2ccc(*)cc2)c2ccccc2)cc1 (repeat unit)	143.00
*Oc1ccc(Cc2ccc(OC(*)=O)c(C)c2)cc1C (repeat unit)	51.00
*c1ccc2c(c1)C(=O)N(c1cc(C(=O)Oc3ccc(C(c4ccc(OC(=O)c5ccc(C)c(N6C(=O)c7ccc(C(*)(C(F)(F)F)C(F)(F)F)cc7C6=O)c5)cc4)(C(F)(F)F)C(F)(F)F)cc3)ccc1C)C2=O (repeat unit)	289.00

Second part, the molecule after the results:

glass transition temperature [°C]	Compound
190.00	*/C(C#N)=C/c1ccc(N(CC)Cc2ccccc2CN(CC)c2ccc(/C=C(\C#N)S(*)(=O)=O)cc2)cc1 (repeat unit)
196.00	*/C=C/c1ccc(/N=N/c2ccc(N(C)CCOC(=O)Nc3ccc(C)c(NC(=O)OCCN(C)c4ccc(/N=N/c5ccc(/C=C/C6=CC(=C(C#N)C#N)C=C(*)O6)cc5)cc4)c3)cc2)cc1 (repeat unit)
64.00	*CCCCCCCCOC(=O)Nc1ccc(C)c(NC(=O)O*)c1 (repeat unit)
89.00	*CCCCCCOC(=O)Nc1ccc(NC(=O)OCCCCCCOc2ccc(-c3ccc(O*)cc3)cc2)c(C)c1 (repeat unit)
42.00	*CCCCOC(=O)Nc1ccc(C)c(NC(=O)O*)c1 (repeat unit)
58.50	*CCN(CCCCCCOc1ccc(/C=C/c2ccc([N+](=O)[O-])cc2)cc1)CCOC(=O)Nc1ccc(C)c(NC(=O)O*)c1 (repeat unit)
137.00	*CCN(CCOC(=O)NCC1(C)CC(NC(=O)O*)CC(C)(C)C1)c1ccc(/N=N/c2ccc([N+](=O)[O-])cc2)cc1 (repeat unit)
147.00	*CCN(CCOC(=O)Nc1cccc(NC(=O)O*)c1C)c1ccc(/N=N/c2ccc([N+](=O)[O-])cc2)cc1 (repeat unit)
131.00	*CCN(CCOC(=O)c1ccc(C(=O)O*)c(OCCCCC)c1)c1ccc(/N=N/c2nc(C#N)c(C#N)[nH]2)cc1 (repeat unit)
73.00	*CCOC(=O)c1ccc(-c2ccc(C(=O)O*)cc2C)c(C)c1 (repeat unit)
-58.00	*CCOCCOC(=O)C(CCCCCCC)C(=O)O* (repeat unit)
12.50	*CCOCCOCCOCCOCCOCCOC(=O)c1cc(OCCCCCCOc2ccc(-c3ccc(OC)cc3)cc2)cc(C(=O)O*)c1 (repeat unit)
157.00	*Nc1cc(NC(=O)c2cc(OCCN(C)c3ccc(S(=O)(=O)C(F)(F)C(F)(F)C(F)(F)C(F)(F)C(F)(F)C(F)(F)C(F)(F)C(F)(F)F)cc3)cc(C(*)=O)c2)cc(C(=O)OCCN(C)c2ccc(C#N)cc2)c1 (repeat unit)
177.00	*Nc1cc(NC(=O)c2cc(OCCN(C)c3ccc([N+](=O)[O-])cc3)cc(C(*)=O)c2)cc(C(=O)OC)c1 (repeat unit)
193.00	*Nc1cc(NC(=O)c2cc(OCCN(C)c3ccc([N+](=O)[O-])cc3)cc(C(*)=O)c2)cc(C(=O)OC2CC(C)CCC2C(C)C)c1 (repeat unit)
233.00	*Nc1cc(NC(=O)c2ccc(C(*)=O)cc2)cc(C(=O)OCCOc2ccc(/C=C/C(=O)c3ccccc3)cc2)c1 (repeat unit)
159.00	*Nc1cc([N+](=O)[O-])c(NC(=O)CCCCCCCCC(*)=O)cc1/C=C/c1ccc(N(C)C)cc1 (repeat unit)

glass transition temperature [°C]	Compound
144.00	*Nc1cc([N+](=O)[O-])c(NC(=O)CCCCCCCCCCC(*)=O)cc1/C=C/c1ccc(N(C)C)cc1 (repeat unit)
5.10	*[O][Ca][O]C(=O)c1ccccc1C(=O)OCCCCCOC(=O)Nc1cc(NC(=O)OCCCCCOC(=O)c2ccccc2C(*)=O)ccc1C (repeat unit)
4.20	*[O][Zn][O]C(=O)c1ccccc1C(=O)OCCCCCOC(=O)Nc1cc(NC(=O)OCCCCCOC(=O)c2ccccc2C(*)=O)ccc1C (repeat unit)
99.00	*Oc1cc(OCCOC)c(OC(=O)c2ccc(C(*)=O)cc2OCCOCC)cc1OCCOC (repeat unit)
69.00	*Oc1ccc(/N=C/CCC/C=N/c2ccc(OC(=O)Nc3cc(NC(*)=O)ccc3C)cc2)cc1 (repeat unit)
203.00	*Oc1ccc(/N=N/c2c(C)cc(Cc3cc(C)c(/N=N/c4ccc(OC(=O)c5ccc(C(*)=O)cc5)cc4)c(C)c3[N+](=O)[O-])c([N+](=O)[O-])c2C)cc1 (repeat unit)
54.00	*Oc1ccc(CC(Cc2ccc(*)cc2)(C(=O)OCC)C(=O)OCC)cc1 (repeat unit)
36.00	*Oc1ccc(CC(NC(=O)CCc2ccc(OC(=O)COCC(*)=O)cc2)C(=O)OCCCCCCCCCCCC)cc1 (repeat unit)
58.00	*Oc1ccc(CC(NC(=O)CCc2ccc(OC(=O)COCCOCC(*)=O)cc2)C(=O)OC(C)C)cc1 (repeat unit)
45.00	*Oc1ccc(CC(NC(=O)CCc2ccc(OC(=O)COCCOCC(*)=O)cc2)C(=O)OCCCC)cc1 (repeat unit)
50.00	*Oc1ccc(CC(NC(=O)Cc2ccc(OC(=O)COCCOCC(*)=O)cc2)C(=O)OCC)cc1 (repeat unit)
31.00	*Oc1ccc(CC(NC(=O)Cc2ccc(OC(=O)COCCOCC(*)=O)cc2)C(=O)OCCCCCC)cc1 (repeat unit)
23.00	*Oc1ccc(CC(NC(=O)Cc2ccc(OC(=O)COCCOCC(*)=O)cc2)C(=O)OCCCCCCCC)cc1 (repeat unit)
110.00	*Oc1ccc(Cc2ccc(OC(=O)c3cc(OCCCCC)cc(C(*)=O)c3)cc2)cc1 (repeat unit)
112.00	*Oc1ccc(OC(=O)c2cc(OCCCCCCCCCCCC)c(C(*)=O)cc2OCCCCCCCCCCCC)cc1C (repeat unit)
93.00	*Oc1ccc(OC(=O)c2ccc(C(*)=O)cc2Oc2ccc(C(C)(C)c3ccccc3)cc2)cc1 (repeat unit)
279.00	*c1ccc(OC(=O)c2cc(C(=O)Oc3ccc(C4(*)OC(=O)c5ccccc54)cc3)cc(C(C)(C)C)c2)cc1 (repeat unit)
